Source: ChEMBL document CHEMBL4800721, “Data for DCP probe A-446” (2021)
Where “and” joins values, the source holds several entries; their conditions need not be identical. Identical values can stand only once. Values belong to the compound of their own block, whether it stands above or below them. Calls of active or inactive are those of the source. The rule behind the calls is not given here.

Tests used:
[1] = target: Glutaminase kidney isoform, mitochondrial (Homo sapiens, UniProt O94925); assay: GLS Enzyme activity assay
[2] = target: Glutaminase liver isoform, mitochondrial (Homo sapiens, UniProt Q9UI32); assay: GLS2 Enzyme activity assay
[3] = target: 5-hydroxytryptamine receptor 3A (Homo sapiens) (UniProt P46098); details: Compound concentration 10.0 uM
[4] = target: Histamine H1 receptor (Homo sapiens) (UniProt P35367); details: Compound concentration 10.0 uM
[5] = target: Mu-type opioid receptor (Homo sapiens) (UniProt P35372); details: Compound concentration 10.0 uM
[6] = target: Muscarinic acetylcholine receptor M1 (Homo sapiens) (UniProt P11229); details: Compound concentration 10.0 uM
[7] = target: Muscarinic acetylcholine receptor M5 (Homo sapiens) (UniProt P08912); details: Compound concentration 10.0 uM
[8] = target: D(4) dopamine receptor (Homo sapiens) (UniProt P21917); details: Compound concentration 10.0 uM
[9] = target: Sigma intracellular receptor 2 (Homo sapiens) (UniProt Q5BJF2); details: Compound concentration 10.0 uM
[10] = target: 5-hydroxytryptamine receptor 7 (Homo sapiens, UniProt P34969); assay: GPCRScan assay: inhibition of 5-HT7A; parameters: radioligand conc. used [nm] 5.0 – 6.0, parental cells Stable HEK
[11] = target: 5-hydroxytryptamine receptor 1E (Homo sapiens) (UniProt P28566); details: Compound concentration 10.0 uM
[12] = target: Beta-1 adrenergic receptor (Homo sapiens) (UniProt P08588); details: Compound concentration 10.0 uM
[13] = target: Alpha-2B adrenergic receptor (Homo sapiens) (UniProt P18089); details: Compound concentration 10.0 uM
[14] = target: T1, 5-hydroxytryptamine receptor 1D (Homo sapiens, UniProt P28221); details: Compound concentration 10.0 uM
[15] = target: Alpha-2C adrenergic receptor (Homo sapiens) (UniProt P18825); details: Compound concentration 10.0 uM
[16] = target: Histamine H4 receptor (Homo sapiens) (UniProt Q9H3N8); details: Compound concentration 10.0 uM
[17] = target: Sodium-dependent dopamine transporter (Homo sapiens) (UniProt Q01959); details: Compound concentration 10.0 uM
[18] = target: Kappa-type opioid receptor (Homo sapiens) (UniProt P41145); details: Compound concentration 10.0 uM
[19] = target: Delta-type opioid receptor (Homo sapiens) (UniProt P41143); details: Compound concentration 10.0 uM
[20] = target: 5-hydroxytryptamine receptor 6 (Homo sapiens) (UniProt P50406); details: Compound concentration 10.0 uM
[21] = target: Histamine H2 receptor (Homo sapiens) (UniProt P25021); details: Compound concentration 10.0 uM
[22] = target: 5-hydroxytryptamine receptor 1A (Homo sapiens) (UniProt P08908); details: Compound concentration 10.0 uM
[23] = tested on: A549; assay: A549 CTG Assay; assay type: cell-based; details: Homo sapiens
[24] = target: 5-hydroxytryptamine receptor 2A (Homo sapiens) (UniProt P28223); details: Compound concentration 10.0 uM
[25] = target: 5-hydroxytryptamine receptor 1B (Homo sapiens) (UniProt P28222); details: Compound concentration 10.0 uM
[26] = target: Muscarinic acetylcholine receptor M4 (Homo sapiens) (UniProt P08173); details: Compound concentration 10.0 uM
[27] = target: Muscarinic acetylcholine receptor M3 (Homo sapiens) (UniProt P20309); details: Compound concentration 10.0 uM
[28] = target: Beta-2 adrenergic receptor (Homo sapiens) (UniProt P07550); details: Compound concentration 10.0 uM
[29] = target: T1, 5-hydroxytryptamine receptor 1D; assay: GPCRScan assay: inhibition of 5-HT1D; parameters: radioligand conc. used [nm] 1.0 – 2.0, parental cells HEKT
[30] = GPCRScan assay: inhibition of GABA/PBR; parameters: species or system Rattus norvegicus; radioligand conc. used [nm] 0.3 – 2.0, parental cells brain tissue
[31] = target: Sigma non-opioid intracellular receptor 1 (Homo sapiens) (UniProt Q99720); details: Compound concentration 10.0 uM
[32] = target: Alpha-2A adrenergic receptor (Homo sapiens) (UniProt P08913); details: Compound concentration 10.0 uM
[33] = target: D(3) dopamine receptor (Homo sapiens) (UniProt P35462); details: Compound concentration 10.0 uM
[34] = target: 5-hydroxytryptamine receptor 2B (Homo sapiens) (UniProt P41595); details: Compound concentration 10.0 uM
[35] = target: 5-hydroxytryptamine receptor 5A (Homo sapiens) (UniProt P47898); details: Compound concentration 10.0 uM

T1 sequence (P28221 whole entry): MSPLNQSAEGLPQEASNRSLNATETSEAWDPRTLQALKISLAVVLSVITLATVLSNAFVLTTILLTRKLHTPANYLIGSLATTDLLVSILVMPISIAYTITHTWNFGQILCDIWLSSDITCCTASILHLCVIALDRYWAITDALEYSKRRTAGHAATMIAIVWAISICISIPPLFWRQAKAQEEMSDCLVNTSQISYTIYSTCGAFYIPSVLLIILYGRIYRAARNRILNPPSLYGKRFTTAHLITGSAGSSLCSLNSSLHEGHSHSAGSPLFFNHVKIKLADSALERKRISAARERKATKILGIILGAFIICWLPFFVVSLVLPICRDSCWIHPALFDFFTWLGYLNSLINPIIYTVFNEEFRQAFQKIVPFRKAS
Sequence of 5-hydroxytryptamine receptor 7 (P34969 whole entry): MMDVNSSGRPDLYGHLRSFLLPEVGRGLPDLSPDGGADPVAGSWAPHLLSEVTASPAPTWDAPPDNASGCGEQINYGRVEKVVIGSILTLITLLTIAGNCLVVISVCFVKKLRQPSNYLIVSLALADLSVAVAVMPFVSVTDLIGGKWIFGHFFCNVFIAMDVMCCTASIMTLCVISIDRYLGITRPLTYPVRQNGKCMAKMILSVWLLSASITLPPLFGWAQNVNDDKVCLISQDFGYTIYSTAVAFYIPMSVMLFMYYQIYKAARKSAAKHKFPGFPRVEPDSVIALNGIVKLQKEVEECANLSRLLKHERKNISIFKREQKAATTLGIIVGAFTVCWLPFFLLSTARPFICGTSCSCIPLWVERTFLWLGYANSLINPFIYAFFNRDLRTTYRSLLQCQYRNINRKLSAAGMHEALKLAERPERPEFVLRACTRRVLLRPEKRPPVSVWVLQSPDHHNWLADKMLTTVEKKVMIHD
Sequence of Glutaminase kidney isoform, mitochondrial (O94925 whole entry, canonical isoform): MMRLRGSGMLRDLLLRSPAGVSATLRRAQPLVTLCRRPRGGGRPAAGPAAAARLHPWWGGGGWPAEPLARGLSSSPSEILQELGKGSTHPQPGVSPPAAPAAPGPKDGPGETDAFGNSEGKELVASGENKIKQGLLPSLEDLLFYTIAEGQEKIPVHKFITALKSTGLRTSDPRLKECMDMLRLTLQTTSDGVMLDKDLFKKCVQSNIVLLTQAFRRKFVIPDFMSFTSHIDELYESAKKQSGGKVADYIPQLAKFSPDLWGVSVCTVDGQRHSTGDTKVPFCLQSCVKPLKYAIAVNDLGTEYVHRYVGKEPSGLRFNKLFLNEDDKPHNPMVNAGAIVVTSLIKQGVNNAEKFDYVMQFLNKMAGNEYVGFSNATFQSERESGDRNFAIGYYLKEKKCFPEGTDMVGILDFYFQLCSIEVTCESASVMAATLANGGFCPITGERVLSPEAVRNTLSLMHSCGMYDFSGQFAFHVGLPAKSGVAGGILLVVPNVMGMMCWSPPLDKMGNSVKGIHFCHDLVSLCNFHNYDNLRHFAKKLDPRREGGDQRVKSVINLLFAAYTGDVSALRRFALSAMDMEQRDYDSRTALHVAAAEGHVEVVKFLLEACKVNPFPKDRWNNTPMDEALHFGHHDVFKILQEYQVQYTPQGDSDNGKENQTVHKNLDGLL
Sequence of Glutaminase liver isoform, mitochondrial (Q9UI32 whole entry, canonical isoform): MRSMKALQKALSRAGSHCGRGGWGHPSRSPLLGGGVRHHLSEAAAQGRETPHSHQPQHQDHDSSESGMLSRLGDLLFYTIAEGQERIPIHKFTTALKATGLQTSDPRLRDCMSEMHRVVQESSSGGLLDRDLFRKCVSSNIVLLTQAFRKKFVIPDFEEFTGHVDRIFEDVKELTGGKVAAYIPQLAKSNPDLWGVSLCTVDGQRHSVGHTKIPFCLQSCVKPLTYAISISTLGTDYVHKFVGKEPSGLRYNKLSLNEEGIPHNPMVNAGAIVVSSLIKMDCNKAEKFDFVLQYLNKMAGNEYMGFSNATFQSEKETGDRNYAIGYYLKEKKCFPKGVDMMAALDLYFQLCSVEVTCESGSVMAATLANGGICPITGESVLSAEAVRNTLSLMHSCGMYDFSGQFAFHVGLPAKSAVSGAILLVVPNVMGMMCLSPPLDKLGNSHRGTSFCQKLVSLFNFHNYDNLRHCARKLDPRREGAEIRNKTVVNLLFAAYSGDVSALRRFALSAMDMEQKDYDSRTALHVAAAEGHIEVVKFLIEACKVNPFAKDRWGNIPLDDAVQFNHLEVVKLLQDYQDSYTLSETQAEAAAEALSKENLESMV
Sequence of Muscarinic acetylcholine receptor M3 (Homo sapiens) (P20309 whole entry, looked up): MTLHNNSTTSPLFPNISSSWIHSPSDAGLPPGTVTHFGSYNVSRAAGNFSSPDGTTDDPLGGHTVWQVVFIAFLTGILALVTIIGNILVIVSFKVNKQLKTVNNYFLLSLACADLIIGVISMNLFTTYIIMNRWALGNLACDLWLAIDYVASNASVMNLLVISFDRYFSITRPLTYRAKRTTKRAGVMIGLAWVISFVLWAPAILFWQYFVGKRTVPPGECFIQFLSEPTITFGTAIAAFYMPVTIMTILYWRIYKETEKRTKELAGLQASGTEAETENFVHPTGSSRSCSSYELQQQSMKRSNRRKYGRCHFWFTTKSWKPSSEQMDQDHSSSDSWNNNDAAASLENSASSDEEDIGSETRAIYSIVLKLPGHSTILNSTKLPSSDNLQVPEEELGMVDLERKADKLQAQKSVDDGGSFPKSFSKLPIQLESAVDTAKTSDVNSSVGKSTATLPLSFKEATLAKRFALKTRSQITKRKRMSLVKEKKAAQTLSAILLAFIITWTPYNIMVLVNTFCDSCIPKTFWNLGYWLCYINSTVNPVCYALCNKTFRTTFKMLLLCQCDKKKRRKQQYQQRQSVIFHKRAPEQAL
Sequence of 5-hydroxytryptamine receptor 2B (Homo sapiens) (P41595 whole entry): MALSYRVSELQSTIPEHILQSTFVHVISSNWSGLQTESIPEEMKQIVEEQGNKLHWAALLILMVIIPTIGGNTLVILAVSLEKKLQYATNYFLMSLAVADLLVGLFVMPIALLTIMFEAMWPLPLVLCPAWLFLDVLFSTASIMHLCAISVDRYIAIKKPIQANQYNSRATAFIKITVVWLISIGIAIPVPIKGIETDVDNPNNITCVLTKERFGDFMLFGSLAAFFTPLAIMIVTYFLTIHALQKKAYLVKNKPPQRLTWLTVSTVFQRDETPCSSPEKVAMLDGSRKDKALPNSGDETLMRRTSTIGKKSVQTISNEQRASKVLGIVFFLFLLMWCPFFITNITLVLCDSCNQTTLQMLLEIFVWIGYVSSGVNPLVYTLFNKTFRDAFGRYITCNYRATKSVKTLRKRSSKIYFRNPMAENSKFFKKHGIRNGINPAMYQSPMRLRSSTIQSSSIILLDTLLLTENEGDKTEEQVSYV
Sequence of D(4) dopamine receptor (Homo sapiens) (P21917 whole entry): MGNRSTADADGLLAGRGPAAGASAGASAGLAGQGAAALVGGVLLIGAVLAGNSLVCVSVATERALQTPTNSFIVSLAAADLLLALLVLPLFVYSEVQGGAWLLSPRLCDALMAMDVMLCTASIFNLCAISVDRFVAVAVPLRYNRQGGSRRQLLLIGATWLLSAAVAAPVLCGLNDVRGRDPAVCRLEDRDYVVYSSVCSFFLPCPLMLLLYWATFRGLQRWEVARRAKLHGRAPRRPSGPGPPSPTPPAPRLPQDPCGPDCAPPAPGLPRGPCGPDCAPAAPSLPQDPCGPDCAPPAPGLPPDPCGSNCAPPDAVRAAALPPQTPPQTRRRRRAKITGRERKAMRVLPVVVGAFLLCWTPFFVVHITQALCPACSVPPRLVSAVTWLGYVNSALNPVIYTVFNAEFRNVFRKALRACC
Sequence of Delta-type opioid receptor (Homo sapiens) (P41143 whole entry): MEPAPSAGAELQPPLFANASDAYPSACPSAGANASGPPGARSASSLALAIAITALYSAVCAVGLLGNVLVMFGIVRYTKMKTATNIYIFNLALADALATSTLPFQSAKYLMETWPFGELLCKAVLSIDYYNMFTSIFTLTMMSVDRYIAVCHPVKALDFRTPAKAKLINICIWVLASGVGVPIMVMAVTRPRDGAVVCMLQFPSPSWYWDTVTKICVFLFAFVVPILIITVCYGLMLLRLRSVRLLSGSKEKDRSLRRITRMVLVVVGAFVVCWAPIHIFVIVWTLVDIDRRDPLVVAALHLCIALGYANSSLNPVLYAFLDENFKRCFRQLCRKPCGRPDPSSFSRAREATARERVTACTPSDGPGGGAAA
Sequence of Sodium-dependent dopamine transporter (Homo sapiens) (Q01959 whole entry): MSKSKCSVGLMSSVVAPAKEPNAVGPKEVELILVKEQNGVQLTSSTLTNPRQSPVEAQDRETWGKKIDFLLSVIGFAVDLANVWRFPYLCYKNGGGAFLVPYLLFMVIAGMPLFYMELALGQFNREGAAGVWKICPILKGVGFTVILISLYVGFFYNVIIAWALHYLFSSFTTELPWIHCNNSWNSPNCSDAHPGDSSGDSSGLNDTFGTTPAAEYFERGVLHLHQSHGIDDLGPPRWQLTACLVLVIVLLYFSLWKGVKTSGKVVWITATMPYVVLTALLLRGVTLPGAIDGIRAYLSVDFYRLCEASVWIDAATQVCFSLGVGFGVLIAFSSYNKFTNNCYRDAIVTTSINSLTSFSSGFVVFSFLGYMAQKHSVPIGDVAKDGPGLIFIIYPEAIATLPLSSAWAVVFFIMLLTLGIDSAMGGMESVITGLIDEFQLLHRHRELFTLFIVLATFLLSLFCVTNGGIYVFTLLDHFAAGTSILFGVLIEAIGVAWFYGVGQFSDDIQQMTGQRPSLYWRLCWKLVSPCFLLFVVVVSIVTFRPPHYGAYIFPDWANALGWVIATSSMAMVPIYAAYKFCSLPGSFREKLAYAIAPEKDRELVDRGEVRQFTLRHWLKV
Sequence of 5-hydroxytryptamine receptor 1B (Homo sapiens) (P28222 whole entry): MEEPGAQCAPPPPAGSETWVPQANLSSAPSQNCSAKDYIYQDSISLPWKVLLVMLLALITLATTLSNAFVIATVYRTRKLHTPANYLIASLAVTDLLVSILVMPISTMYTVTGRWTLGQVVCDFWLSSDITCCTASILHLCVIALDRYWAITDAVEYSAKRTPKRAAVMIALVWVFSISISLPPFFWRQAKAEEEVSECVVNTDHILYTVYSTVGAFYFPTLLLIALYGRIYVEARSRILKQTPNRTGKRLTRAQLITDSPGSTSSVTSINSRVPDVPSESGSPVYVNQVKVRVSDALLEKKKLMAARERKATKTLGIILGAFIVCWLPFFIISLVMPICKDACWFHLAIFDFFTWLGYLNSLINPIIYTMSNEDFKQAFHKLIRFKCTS

IC50 [1]: > 30 µM (not active)
IC50 [2]: > 30 µM (not active)
SMILES: O=C(Cc1ccccc1)Nc1nnc(N2CC[C@@H]3[C@H]2CN3c2cccnn2)s1 [A-426]

inhibition [3]: 1.72%
inhibition [4]: 21.3%
inhibition [5]: -3.29%
inhibition [6]: 14.6%
inhibition [7]: 15%
inhibition [8]: -7.36%
inhibition [9]: 6.42%
Ki [10]: > 10 µM
pKi [10]: < 5
inhibition [11]: -1.42%
inhibition [12]: 1.03%
inhibition [13]: -6.1%
inhibition [14]: 55.1%
inhibition [15]: 13.9%
inhibition [16]: 18.3%
inhibition [17]: 33.5%
inhibition [18]: 2.85%
inhibition [19]: -2.96%
inhibition [20]: -4.23%
inhibition [21]: -5.22%
inhibition [22]: 1.9%
IC50 [23]: 0.0105 µM (active)
inhibition [24]: -2.63%
inhibition [25]: 11.2%
inhibition [26]: -9.24%
IC50 [1]: 0.031 µM (active)
inhibition [27]: 9.66%
inhibition [28]: -8.05%
Ki ([29]; read-out: Ki): > 10 µM and 6.45 µM
Ki ([29]; read-out: pKi (converted)): > 10 µM
Ki [30]: > 10 µM
pKi [30]: < 5
inhibition [31]: 9.03%
inhibition [32]: 12.2%
inhibition [33]: -3.72%
inhibition [34]: 1.83%
IC50 [2]: > 30 µM (not active)
inhibition [35]: 4.08%
SMILES: O=C(Cc1ccccc1)Nc1nnc(N2C[C@H]3C[C@@H]2CN3c2cccnn2)s1 [A-446]
